pIC50: −log10 of the molar value.
What was measured:
[1] = tested on: 5′-cap dependent translation initiation; test: Renilla-Firefly luciferase dual translation assay in SKOV-3 cells; format: cell-based, human
Text: (§1) FIG. 13A: Compound 5 induces the phosphorylation of eIF2α, confirming integrated stress response. p-eIF2αinduces ATF4 that suppresses 5′-cap dependent translation initiation, shown below. […] The levels of reporter proteins used in the translation assay (Pierce™ Renilla-Firefly Luciferase Dual Assay Kit; Thermo Scientific, Grand Island, NY) were normalized to the levels of intracellular FLUC-RLUC transcripts and are shown as percent of untreated control cells. RLU=Relative light units. 5′-cap dependent translation initiation was much less and occurred later. Values: Mean±SEM; *, p<0.05 and **, p<0.01 vs. control. […] Loading controls: β-actin and GADPH.

STAT3 = test: Activation by phosphorylation in SKOV-3 cells; format: cell-based, human
Description: (§2) FIGS. 12A-12C and FIGS. 13A-13C illustrate key findings related to the mechanism of action of compound 5 against ovarian cancer. The studies shown here were performed in SKOV-3 human ovarian cancer cells. FIG. 12A: Left: Compound 5 increases the percentage of cells with acridine orange staining determined by flow cytometry (4% 4→38% after treatment with compound 5) and indicating the induction of autophagy. Right: Electron micrographs show morphological features of cells undergoing autophagy. Yellow arrowheads: vacuoles; white arrowheads: autophagosomes. […] N: nucleus; ER: endoplasmic reticulum with visible ribosomes. The left micrograph shown normal ER (circled) in a vehicle-treated cell. […] The latter finding is diagnostic of ER stress. Magnification: 6,800×. FIG. 12C: Compound 5 suppresses STAT3, mTOR and JNK activation by phosphorylation, as well as the levels of COT.

mTOR = test: Activation by phosphorylation in SKOV-3 cells; format: cell-based, human
Description: as §2

JNK = test: Activation by phosphorylation in SKOV-3 cells; format: cell-based, human
Description: as §2

HCT116 colon cancer = test: 24 hr growth inhibition of cell line; format: cell-based; settings: Homo sapiens, HCT-116, 24 h
Description: (§3) The therapeutic efficacy of compounds 2, 5, and 6 was assessed in human and murine cell lines of varied tissue origin, and their 24 hr 50% inhibitory concentration was determined by following standard methodologies. Typical results are shown in the Table 5, indicating a broad anticancer effect.

RAW264 murine macrophage = test: 24 hr growth inhibition of cell line; format: cell-based; settings: Mus musculus, RAW264.7, 24 h
Description: as §3

AGS gastric cancer = test: 24 hr growth inhibition of cell line; format: cell-based; settings: Homo sapiens
Description: as §3

A549 lung cancer = test: 24 hr growth inhibition of cell line; format: cell-based; settings: Homo sapiens
Description: as §3

[2] = tested on: SKOV-3 human ovarian cancer cell xenografts; test: Intraperitoneal luciferase-expressing SKOV-3 tumors in nude mice; format: in vivo; settings: 15 mg/kg ip once a day, six days a week
Description: The ability of compound 5 to inhibit the growth of human ovarian cancer cell xenografts in nude mice was determined. A mouse model that recapitulates the features of peritoneal spread was used, the peritoneal spread being the clinically most relevant presentation of ovarian cancer. In this model, luciferase-expressing ovarian cancer cells are injected intraperitoneally (ip) into nude mice. Multiple tumors grow in the peritoneal cavity and their growth is monitored periodically using the IVIS Lumina II imaging system following the intraperitoneal administration of luciferin, the substrate of luciferase. The luciferase gene was transfected into SKOV-3 cells, and 2×10^6 cells were intraperitoneally injected into mice. Two weeks later, when tumors had grown, mice treatment was started by intraperitoneally injecting compound 5, 15 mg/kg or vehicle (corn oil), once a day, six days a week (n=10 mice/group).
When the tumor volume of the compound 5 treated mice at the end of the study is compared to that of the day when treatment started (baseline), compound 5 caused 53% tumor regression, with 3 out of 10 mice having barely detectable tumors by imaging and no tumors visible at necropsy.
(§4) Compound 6 was also efficacious against chemotherapy-resistant ovarian cancer. […] The effect of compound 6 in cisplatin resistant (A2780cis) and doxorubicin (Adriamycin) resistant (A2780ADR) tumors was studied. Briefly, each of these cell lines was subcutaneously inoculated into athymic nude mice and when the tumor size reached 100-200 mm^3, compound 6 150 mg/kg/day or its vehicle were given i.p. After 11 days of treatment, for the cisplatin-resistant tumors the tumor volume of the vehicle group was 2388±127 mm^3 and for compound 6 group 1032±108 mm^3 (mean±SEM; P<0.02); while for the doxorubicin-resistant tumors these values were: vehicle group=1369±337 mm^3 and compound 6 group=396±182 mm^3 (P<0.02).

A2780cis xenografts = test: Subcutaneous xenografts in nude mice, cisplatin resistant; format: in vivo; settings: compound 5 15 mg/kg/day six days a week ip; cis-platinum 5.5 mg/kg one time a week ip
Description: as §4
To determine whether compound 5 is efficacious against chemotherapy-resistant ovarian cancer, three pairs of sensitive and resistant human ovarian cancer cell lines were grown as subcutaneous xenografts in nude mice and treated as summarized in FIG. 10. These cell lines were: A2780, sensitive to both cis-platinum and Adriamycin (doxorubicin); A2780cis, resistant to cis-platinum; A2780ADR, resistant to Adriamycin: HEY, sensitive to Taxol; HEY-T30, resistant to Taxol. The treatments administered were: vehicle control; compound 5, 15 mg/kg/day six days a week, ip; cis-platinum 5.5 mg/kg, one time a week ip; Adriamycin 3 mg/kg twice a week ip; and Taxol 20 mg/kg twice a week ip.

[3] = tested on: MIA PaCa2 human pancreatic cancer cells; test: In vitro synergy with tamoxifen; format: cell-based; settings: tamoxifen prior to or concurrently with compound 5
Text: Additionally, synergy has been documented between compounds 5 and 6 individually and several chemotherapeutic and other agents, including but not limited to various camptothecins (e.g., camptothecin 11), resveratrol, gemcitabine, docetaxel, curcumin, progesterone, and methotrexate. Such synergy concerned the ability of these combinations to markedly suppress the growth of various human cancer cell lines originating in the pancreas, lung and other tissues. Furthermore, extremely efficacious was the combination of compounds 5, 6 and tamoxifen in completely suppressing the growth of K-ras mutant human pancreatic cancer cell lines.

eIF2α = test: Phosphorylation in SKOV-3 cells (integrated stress response); format: cell-based, human
Text: as §1

[4] = tested on: SKOV-3 human ovarian cancer cells; test: Acridine orange staining by flow cytometry (autophagy); format: cell-based; settings: after treatment; 4% before
Description: as §2

- pIC50 (HCT116 colon cancer): 5.00
- pIC50 (AGS gastric cancer): 4.85
- pIC50 (A549 lung cancer): 4.72
Compound: CCN(CC)CCCCNC(=O)c1ccccc1SC/C=C(\C)CC/C=C(\C)CCC=C(C)C [Compound 5]
- 5′-cap dependent translation initiation [1]: suppresses predominantly
- STAT3 activation by phosphorylation (STAT3): suppresses
- mTOR activation by phosphorylation (mTOR): suppresses
- JNK activation by phosphorylation (JNK): suppresses
- pIC50 (RAW264 murine macrophage): 5.30
- reduction of tumor volume compared to control ([2]; day 24): 153%
- mice having barely detectable tumors by imaging and no tumors visible at necropsy ([2]; end of study): 3 out of 10
- tumor regression vs baseline (day treatment started) ([2]; end of study): 53%
- growth of platinum-resistant xenografts (A2780cis xenografts): as efficacious as in the platinum sensitive xenografts
- synergy with tamoxifen on growth of MIA PaCa2 cells [3]: synergizes
- phosphorylation of eIF2α (eIF2α): induces
- percentage of cells with acridine orange staining [4]: 38%

Reference: patent US12599599B2, “Anti-inflammatory, anti-cancer, and anti-angiogenic compounds, pharmaceutical compositions, and methods of making and using thereof” (MEDICON PHARMACEUTICALS, INC., priority 2017, dated 2026)
